This is an account of results in patent publication US20260014153A1, “ELACESTRANT IN COMBINATION WITH ABEMACICLIB IN WOMEN WITH BREAST CANCER” (RADIUS PHARMACEUTICALS, INC., priority 2018, published 2026).

The structures appear in SMILES notation.

For one series, the target named is T1, ERα (Homo sapiens, UniProt P03372).
T1 sequence (P03372 1-595): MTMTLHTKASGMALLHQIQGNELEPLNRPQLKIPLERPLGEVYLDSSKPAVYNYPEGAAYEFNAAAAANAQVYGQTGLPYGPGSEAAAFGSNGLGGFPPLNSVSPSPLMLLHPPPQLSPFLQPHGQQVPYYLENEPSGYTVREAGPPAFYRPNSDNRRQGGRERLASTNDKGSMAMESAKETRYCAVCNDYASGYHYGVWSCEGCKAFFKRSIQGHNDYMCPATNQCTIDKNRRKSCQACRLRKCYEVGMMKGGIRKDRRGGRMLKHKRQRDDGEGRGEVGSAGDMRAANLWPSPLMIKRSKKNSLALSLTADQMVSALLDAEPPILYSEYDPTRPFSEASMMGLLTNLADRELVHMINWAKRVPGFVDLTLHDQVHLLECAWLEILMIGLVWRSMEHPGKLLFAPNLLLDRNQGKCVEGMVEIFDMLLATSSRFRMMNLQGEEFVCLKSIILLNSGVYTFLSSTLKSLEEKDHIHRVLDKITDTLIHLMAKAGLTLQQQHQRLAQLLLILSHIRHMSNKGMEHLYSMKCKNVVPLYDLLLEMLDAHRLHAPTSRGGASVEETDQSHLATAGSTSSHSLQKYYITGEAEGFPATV
Particulars: cited from earlier work.

Series [1] deals with tumors expressing wild-type ERα. The series can be described thus: growth of tumors expressing wild-type ERα. Format: in vivo.
The test system of series [2] is tumors expressing Y537S ERα. The experiment in a line: growth of tumors expressing mutant ERα. Format: in vivo.
Series [3] can be described thus: half life after PO dosing. Type of series: in vivo. Particulars: humans.
The test system of another series is uterine tissues. The series can be described thus: estradiol stimulation of uterine tissues in ovariectomized rats. Type of series: in vivo.
Series [4] concerns the target T2, ER in the uterus and pituitary (Homo sapiens, UniProt P03372).
T2 construct: from tissue; host or cells: uterus and pituitary, in vivo
T2 sequence (P03372 1-595): T1 sequence (P03372 1-595)
The series can be described thus: estradiol binding to ER by FES-PET imaging. The note with it: uterine and pituitary tissue. Format: in vivo. As for the experimental part: In these experiments, estradiol binding to ER in uterine and pituitary tissue was evaluated by FES-PET imaging.

Series [5] deals with brain metastasis xenograft. The experiment in a line: brain metastasis xenograft model. The note with it: in vivo.
The test system of a further series is breast cancer tumor. The experiment in a line: animal xenograft model of breast cancer. Particulars: in vivo.
Series [6] can be described thus: standardized uptake value in tissues not significantly expressing ER. Format: in vivo, human. Particulars: 200 mg or up to 500 mg q.d.; uterus, muscle, bone tissues not significantly expressing ER.
The next series has as its system ER+ breast cancer. Particulars: monotherapy; models including fulvestrant-insensitive, estrogen-independent and/or ESR1-mutant; cited from earlier work.
The nature of series [7]: bone loss in ovariectomized rats. Type of series: in vivo.
Series [8] deals with ER+ breast cancer with both wild-type and mutant ESR1. The note with it: models of ER+ breast cancer, single agent and in combination with a CDK4/6 inhibitor; cited from earlier work.

In the case of `CCNCCc1ccc(CN(CC)c2cc(OC)ccc2[C@@H]2CCc3cc(O)ccc3C2)cc1` [RAD1901], the “binding preference ERα versus ERβ” value on ERα was “preferentially bind ERα”. Also, the “inhibition of tumor growth” value in [1] is recorded as “inhibit tumor growth”. In [2], the “inhibition of tumor growth” value is reported as “unexpected ability to inhibit the growth of tumors”. Moreover, in [3], the half life entry is given as “surprisingly long half life”. Besides, the “estradiol stimulation of uterine tissues” value with uterine tissues is recorded as “antagonized estradiol stimulation”. Moreover, the “observed level of ER binding after treatment” value in series [4] was “at or below background levels”. In series [5], the blood-brain barrier penetration result is on record as “capable of penetrating the blood-brain barrier” and the survival result is on record as “significantly prolonged survival”. In the series with breast cancer tumor, the “accumulation within tumor cells” value is on record as “significant accumulation” and the “breast cancer tumor growth” value was “inhibiting breast cancer tumor growth”. For the same molecule, in [6], the “change in standardized uptake value (SUV) pre- and post-treatment” value is “hardly any changes”. In the series on ER+ breast cancer, the antitumor activity entry is reported as “demonstrated antitumor activity”. In series [7], the bone loss result is on record as “protects against bone loss”. In [8], the “inhibition of tumor growth” value is “effective in inhibiting tumor growth”.
